Data reported in patent US10759813B2, “Neprilysin inhibitors” (THERAVANCE BIOPHARMA R&D IP, LLC, priority 2010, dated 2020).

Molecular target: human neprilysin (EC 3.4.24.11; NEP) (Homo sapiens (Human), UniProt P08473)
Assay: In vitro enzyme inhibition assay at human NEP (fluorogenic peptide substrate)
Type: biochemical
Conditions: pKi values at human NEP, recombinant human NEP
Summary of the method: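 Recombinant human NEP preincubated 30 min at 37 °C with compound (10 μM down to pM), then 10 μM Mca-D-Arg-Arg-Leu-Dap-(Dnp)-OH in 50 mM HEPES pH 7.5, 100 mM NaCl, 0.01% Tween-20, 10 μM ZnSO4. Stopped after 20 min with acetic acid; fluorescence Ex320/Em405; Ki by nonlinear fit, reported as pKi.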

Sequence of human neprilysin (EC 3.4.24.11; NEP) (P08473 52-750): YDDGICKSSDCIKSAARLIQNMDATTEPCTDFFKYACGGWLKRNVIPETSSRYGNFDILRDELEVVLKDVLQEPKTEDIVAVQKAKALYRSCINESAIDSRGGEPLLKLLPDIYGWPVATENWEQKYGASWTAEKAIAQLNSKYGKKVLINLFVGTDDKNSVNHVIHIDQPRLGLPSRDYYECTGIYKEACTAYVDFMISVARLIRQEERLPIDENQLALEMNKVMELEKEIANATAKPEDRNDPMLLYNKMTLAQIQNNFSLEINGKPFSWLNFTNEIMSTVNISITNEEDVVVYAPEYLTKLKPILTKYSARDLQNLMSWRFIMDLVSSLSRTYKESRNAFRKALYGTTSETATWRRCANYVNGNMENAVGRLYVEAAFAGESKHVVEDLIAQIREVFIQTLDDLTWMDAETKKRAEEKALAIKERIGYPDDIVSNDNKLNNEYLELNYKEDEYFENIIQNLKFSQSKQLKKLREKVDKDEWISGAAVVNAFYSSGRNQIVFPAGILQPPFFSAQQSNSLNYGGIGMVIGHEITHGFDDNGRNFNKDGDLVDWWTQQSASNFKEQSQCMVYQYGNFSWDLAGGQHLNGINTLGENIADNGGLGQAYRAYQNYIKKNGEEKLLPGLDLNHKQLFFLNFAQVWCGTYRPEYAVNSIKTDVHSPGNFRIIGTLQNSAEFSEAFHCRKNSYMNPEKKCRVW

| Structure (SMILES) | Ki [nM] | pKi |
| --- | --- | --- |
| O=C(N[C@H](Cc1ccc(-c2ccccc2)cc1)CC(O)C(=O)O)c1cc(C(=O)O)n(Cc2cccc(Cl)c2)n1 (stereo partly drawn) [Example 15-7, 5-((R)-1-Biphenyl-4-ylmethyl-3-carboxy-3-hydroxypropylcarbamoyl)-2-(3-chlorobenzyl)-2H-pyrazole-3-carboxylic acid] | 1.26 to 10 |  |
| Cc1cc(C(=O)N[C@H](Cc2ccc(-c3ccccc3)cc2)CC(O)C(=O)O)n[nH]1 (stereo partly drawn) [Example 15-19, (R)-5-Biphenyl-4-yl-2-hydroxy-4-[(5-methyl-1H-pyrazole-3-carbonyl)amino]pentanoic acid] | 12.6 to 100 |  |
| Cn1cc(-c2cc(C(=O)N[C@H](Cc3ccc(-c4ccccc4)cc3)CC(O)C(=O)O)n[nH]2)cn1 (stereo partly drawn) [Example 15-23, (R)-5-Biphenyl-4-yl-2-hydroxy-4-[(1′-methyl-2H, 1′H-[3,4′]bipyrazolyl-5-carbonyl)amino]-pentanoic acid] | 12.6 to 100 |  |
| CCCCc1cc(C(=O)N[C@H](Cc2ccc(-c3ccccc3)cc2)C[C@@H](O)C(=O)O)[nH]n1 [Example 15-112, (2R,4R)-5-Biphenyl-4-yl-4-[(5-butyl-2H-pyrazole-3-carbonyl)-amino]-2-hydroxy-pentanoic acid] | 1.26 to 10 |  |
| CC(C)CN(C)C(=O)c1cc(C(=O)N[C@H](Cc2ccc(-c3ccccc3)cc2)C[C@@H](O)C(=O)O)[nH]n1 [Example 15-67, (2R,4R)-5-Biphenyl-4-yl-2-hydroxy-4-{[5-(isobutylmethyl-carbamoyl)-2H-pyrazole-3-carbonyl]amino}-pentanoic acid] |  | ≥9.0 |
| COc1ccccc1C(=O)Nc1cc(C(=O)N[C@H](Cc2ccc(-c3ccccc3)cc2)CC(O)C(=O)O)[nH]n1 (stereo partly drawn) [Example 15-95, (R)-5-Biphenyl-4-yl-2-hydroxy-4-{[5-(2-methoxy-benzoylamino)-2H-pyrazole-3-carbonyl]-amino}-pentanoic acid] | 1.26 to 10 |  |
| O=C(N[C@H](Cc1ccc(-c2ccccc2)cc1)C[C@@H](O)C(=O)O)c1cc(C(=O)N2CCC2)n[nH]1 [Example 4-B, (2R,4R)-4-{[5-(Azetidine-1-carbonyl)-2H-pyrazole-3-carbonyl]amino}-5-biphenyl-4-yl-2-hydroxy-pentanoic acid] |  | ≥9.0 |
| O=C(O)c1ccc(C(=O)N[C@H](Cc2ccc(-c3ccccc3)cc2)CC(O)C(=O)O)s1 (stereo partly drawn) [Example 12-2, 5-((R)-1-Biphenyl-4-ylmethyl-3-carboxy-3-hydroxypropylcarbamoyl)thiophene-2-carboxylic acid] | 1.26 to 10 |  |
| O=C(N[C@H](Cc1ccc(-c2cccc(Cl)c2)cc1)C[C@@H](O)C(=O)O)c1c[nH]nn1 [Example 18-2, (2R,4R)-5-(3′-Chlorobiphenyl-4-yl)-2-hydroxy-4-[(1H-[1,2,3]triazole-4-carbonyl)-amino]-pentanoic acid] |  | ≥9.0 |
| CC(=O)c1cc(C(=O)N[C@H](Cc2ccc(-c3ccccc3)cc2)C[C@@H](O)C(N)=O)[nH]n1 [Example 15-108, 5-Acetyl-2H-pyrazole-3-carboxylic acid ((1R,3R)-1-biphenyl-4-ylmethyl-3-carbamoyl-3-hydroxypropyl)amide] | 12.6 to 100 |  |
| Cn1nc(C(=O)N[C@H](Cc2ccc(-c3ccccc3)cc2)C[C@@H](O)C(=O)O)cc1C(=O)O [Example 15-5, 5-((1R,3R)-1-Biphenyl-4-ylmethyl-3-carboxy-3-hydroxypropylcarbamoyl)-2-methyl-2H-pyrazole-3-carboxylic acid] |  | ≥9.0 |
| NC(=O)[C@H](O)C[C@@H](Cc1ccc(-c2ccccc2)cc1)NC(=O)c1cnc(O)nc1 [Example 9, 2-Hydroxypyrimidine-5-carboxylic acid ((1R,3R)-1-biphenyl-4-ylmethyl-3-carbamoyl-3-hydroxypropyl)amide] | 12.6 to 100 |  |
| O=C(N[C@H](Cc1ccc(-c2ccccc2)cc1Cl)C[C@@H](O)C(=O)O)c1c[nH]nn1 [Example 20-1, (2R,4R)-5-(3-Chlorobiphenyl-4-yl)-2-hydroxy-4-[(1H-[1,2,3]triazole-4-carbonyl)-amino]-pentanoic acid] |  | ≥9.0 |
| O=C(N[C@H](Cc1ccc(-c2ccccc2)cc1)CC(O)C(=O)O)c1ccc(C(=O)O)nc1 (stereo partly drawn) [Example 13-8, 5-((R)-1-Biphenyl-4-ylmethyl-3-carboxy-3-hydroxypropylcarbamoyl)-pyridine-2-carboxylic acid] | 12.6 to 100 |  |
| Cc1ccc(-c2cc(C(=O)N[C@H](Cc3ccc(-c4ccccc4)cc3)C[C@@H](O)C(=O)O)[nH]n2)s1 [Example 15-89, (2R,4R)-5-Biphenyl-4-yl-2-hydroxy-4-{[5-(5-methylthiophen-2-yl)-2H-pyrazole-3-carbonyl]-amino}-pentanoic acid] |  | ≥9.0 |
| O=C(N[C@H](Cc1ccc(-c2ccccc2)cc1)C[C@H](O)C(=O)O)c1cc(C(=O)N2CCC(O)CC2)n[nH]1 [Example 15-50, (2S,4R)-5-Biphenyl-4-yl-2-hydroxy-4-{[5-(4-hydroxypiperidine-1-carbonyl)-2H-pyrazole-3-carbonyl]-amino}-pentanoic acid] | 12.6 to 100 |  |

| Structure (SMILES) | Ki [nM] | pKi |
| --- | --- | --- |
| O=C(N[C@H](Cc1ccc(-c2ccccc2)cc1)CC(O)C(=O)O)c1cc(-c2cnccn2)[nH]n1 (stereo partly drawn) [Example 15-22, (R)-5-Biphenyl-4-yl-2-hydroxy-4-[(5-pyrazin-2-yl-1H-pyrazole-3-carbonyl)amino]-pentanoic acid] | 1.26 to 10 |  |
| COCc1cc(C(=O)N[C@H](Cc2ccc(-c3ccccc3)cc2)C[C@@H](O)C(=O)O)n[nH]1 [Example 15-4, (2R,4R)-5-Biphenyl-4-yl-2-hydroxy-4-[(5-methoxymethyl-1H-pyrazole-3-carbonyl)-amino]-pentanoic acid] | 1.26 to 10 |  |
| O=C(N[C@@H](Cc1ccc(-c2cccc(Cl)c2)cc1)C[C@@H](O)C(=O)O)c1cc(O)n(-c2cccc(Cl)c2)n1 [Example 18-39, (2R,4S)-5-(3′-Chloro-biphenyl-4-yl)-4-{[1-(3-chloro-phenyl)-5-hydroxy-1H-pyrazole-3-carbonyl]-amino}-2-hydroxy-pentanoic acid] |  | ≥9.0 |
| O=C(N[C@H](Cc1ccc(-c2ccccc2)cc1)C[C@@H](O)C(=O)O)c1cc2n(n1)CCOc1ccccc1-2 [Example 16-1, (2R,4R)-5-Biphenyl-4-yl-4-[(4,5-dihydro-6-oxa-3,3a-diaza-benzo[e]azulene-2-carbonyl)-amino]-2-hydroxy-pentanoic acid] |  | ≥9.0 |
| O=C(N[C@H](Cc1ccc(-c2ccccc2)cc1)C[C@@H](O)C(=O)O)c1cc2n(n1)CCCOc1ccccc1-2 [Example 16-3, (2R,4R)-5-Biphenyl-4-yl-2-hydroxy-4-[(10-oxa-5,6-diaza-tricyclo[9.4.0.02,6]pentadeca-1(15),2,4,11,13-pentaene-4-carbonyl)-amino]-pentanoic acid] | 1.26 to 10 |  |
| CC(=O)c1cc(C(=O)N[C@H](Cc2ccc(-c3ccccc3)cc2Cl)C[C@@H](O)C(=O)O)[nH]n1 [Example 20-7, (2R,4R)-4-[(5-Acetyl-2H-pyrazole-3-carbonyl)-amino]-5-(3-chloro-biphenyl-4-yl)-2-hydroxy-pentanoic acid] |  | ≥9.0 |
| O=C(N[C@H](Cc1ccc(-c2ccccc2)cc1)C[C@@H](O)C(=O)O)c1cc(-c2ccc(Cl)cc2)on1 [Example 12-17, (2R,4R)-5-Biphenyl-4-yl-4-{[5-(4-chlorophenyl)-isoxazole-3-carbonyl]-amino}-2-hydroxy-pentanoic acid] | 1.26 to 10 |  |
| O=C(N[C@H](Cc1ccc(-c2cccc(Cl)c2)cc1)C[C@@H](O)C(=O)O)c1nn(-c2ccc(F)cc2)c(=O)[nH]1 [Example 18-44, (2R,4R)-5-(3′-Chloro-biphenyl-4-yl)-4-{[1-(4-fluoro-phenyl)-5-oxo-4,5-dihydro-1H-[1,2,4]triazole-3-carbonyl]-amino}-2-hydroxy-pentanoic acid] |  | ≥9.0 |
| O=C(N[C@H](Cc1ccc(-c2cccc(Cl)c2)cc1)C[C@@H](O)C(=O)O)c1cc(=O)n(-c2ccccc2)[nH]1 [Example 18-41, (2R,4R)-5-(3′-Chlorobiphenyl-4-yl)-2-hydroxy-4-[(5-oxo-1-phenyl-2,5-dihydro-1H-pyrazole-3-carbonyl)-amino]-pentanoic acid] |  | ≥9.0 |
| O=C(N[C@H](Cc1ccc(-c2ccccc2)cc1)C[C@@H](O)C(=O)O)c1cc(-c2cc(Cl)ccc2Cl)no1 [Example 12-11, (2R,4R)-5-Biphenyl-4-yl-4-{[3-(2,5-dichlorophenyl)-isoxazole-5-carbonyl]-amino}-2-hydroxy-pentanoic acid] |  | ≥9.0 |
| O=C(O)Cn1nc(C(=O)N[C@H](Cc2ccc(-c3ccccc3)cc2)C[C@@H](O)C(=O)O)cc1-c1ccccc1 [Example 15-35, (2R,4R)-5-Biphenyl-4-yl-4-[(1-carboxymethyl-5-phenyl-1H-pyrazole-3-carbonyl)-amino]-2-hydroxy-pentanoic acid] |  | ≥9.0 |
| O=C(N[C@H](Cc1ccc(-c2cccc(Cl)c2)cc1)C[C@@H](O)C(=O)O)c1ccc(=O)n(-c2ccccc2)n1 [Example 18-49, (2R,4R)-5-(3′-Chlorobiphenyl-4-yl)-2-hydroxy-4-[(6-oxo-1-phenyl-1,6-dihydro-pyridazine-3-carbonyl)-amino]-pentanoic acid] | 1.26 to 10 |  |
| NC(=O)C1CCN(C(=O)c2cc(C(=O)N[C@H](Cc3ccc(-c4ccccc4)cc3)C[C@H](O)C(=O)O)[nH]n2)C1 (stereo partly drawn) [Example 15-44, (2S,4R)-5-Biphenyl-4-yl-4-{[5-(3-carbamoylpyrrolidine-1-carbonyl)-2H-pyrazole-3-carbonyl]-amino}-2-hydroxy-pentanoic acid] | 1.26 to 10 |  |
| O=C(N[C@H](Cc1ccc(-c2cc(Cl)ccc2F)cc1)C[C@@H](O)C(=O)O)c1cn(O)nn1 [Example 19-6, (2R,4R)-5-(5′-Chloro-2′-fluorobiphenyl-4-yl)-2-hydroxy-4[(1-hydroxy-1H-[1,2,3]triazole-4-carbonyl)-amino]-pentanoic acid] |  | ≥9.0 |
| CC(=O)c1cc(C(=O)N[C@H](Cc2ccc(-c3cccc(Cl)c3)cc2)C[C@@H](O)C(=O)O)on1 [Example 18-7, (2R,4R)-4-[(3-Acetyl-isoxazole-5-carbonyl)-amino]-5-(3′-chlorobiphenyl-4-yl)-2-hydroxy-pentanoic acid] |  | ≥9.0 |
